Reference: the supplement of paper PMC13380429

Key:
Settings in all cases: 72 h
Caco-2 [1] = assay: cell viability relative to DMSO; higher = less toxic
Calu-3 [2] = assay: as above
HepG2 [3] = assay: as above
U2OS [4] = assay: as above
Vero E6 [5] = assay: as above
Caco-2 [6] = assay: relative viability EC50 (midpoint between 100% and the lowest measured viability); higher = less toxic
Calu-3 [7] = assay: as above
HepG2 [8] = assay: as above
U2OS [9] = assay: as above
Vero E6 [10] = assay: as above
Caco-2 [11] = assay: drug sensitivity score (DSS) for viability; higher = more toxic; extreme values may be limits of the assay
Calu-3 [12] = assay: as above
HepG2 [13] = assay: as above
U2OS [14] = assay: as above
Vero E6 [15] = assay: as above

Compound	cell viability (Caco-2 [1]; 1 nM) [%]	cell viability (Caco-2 [1]; 10 nM) [%]	cell viability (Caco-2 [1]; 100 nM) [%]	cell viability (Caco-2 [1]; 1000 nM) [%]	cell viability (Caco-2 [1]; 10000 nM) [%]	cell viability (Calu-3 [2]; 1 nM) [%]	cell viability (Calu-3 [2]; 10 nM) [%]	cell viability (Calu-3 [2]; 100 nM) [%]	cell viability (Calu-3 [2]; 1000 nM) [%]	cell viability (Calu-3 [2]; 10000 nM) [%]	cell viability (HepG2 [3]; 1 nM) [%]	cell viability (HepG2 [3]; 10 nM) [%]	cell viability (HepG2 [3]; 100 nM) [%]	cell viability (HepG2 [3]; 1000 nM) [%]	cell viability (HepG2 [3]; 10000 nM) [%]	cell viability (U2OS [4]; 1 nM) [%]	cell viability (U2OS [4]; 10 nM) [%]	cell viability (U2OS [4]; 100 nM) [%]	cell viability (U2OS [4]; 1000 nM) [%]	cell viability (U2OS [4]; 10000 nM) [%]	cell viability (Vero E6 [5]; 1 nM) [%]	cell viability (Vero E6 [5]; 10 nM) [%]	cell viability (Vero E6 [5]; 100 nM) [%]	cell viability (Vero E6 [5]; 1000 nM) [%]	cell viability (Vero E6 [5]; 10000 nM) [%]	relative viability EC50 (Caco-2 [6]) [µM]	relative viability EC50 (Calu-3 [7]) [µM]	relative viability EC50 (HepG2 [8]) [µM]	relative viability EC50 (U2OS [9]) [µM]	relative viability EC50 (Vero E6 [10]) [µM]	drug sensitivity score (Caco-2 [11])	drug sensitivity score (Calu-3 [12])	drug sensitivity score (HepG2 [13])	drug sensitivity score (U2OS [14])	drug sensitivity score (Vero E6 [15])
CC(C)NC[C@@H](O)c1ccc(O)c(O)c1 (racemic) [isoprenaline]	96.5	90	89	92.9	93.9	93.6	104	94.4	92.3	98.2	109	98.6	96.5	100	101	96.8	98.9	95.5	99.7	103	101	97.6	101	107	79.8	> 10	> 10	> 10	> 10	> 10	0	0	0	0	0.4
CCCN(C/C=C/I)[C@H]1CCc2ccc(O)cc2C1 [7-hydroxy-PIPAT]	99.8	110	104	108	101	111	97.3	90.5	102	105	102	104	97.8	101	98.4	98	96.7	101	103	98.3	102	104	103	103	96	> 10	> 10	> 10	> 10	> 10	0	0	0	0	0
CCO[C@@H](Cc1ccc(OCCn2c(C)ccc2-c2ccc(SC)cc2)cc1)C(=O)O [saroglitazar]	92	92.8	122	93.7	100	93.3	80.3	97.6	89.9	105	97.3	95.5	88.4	97.1	104	102	89.1	101	97.5	93.9	99.5	96.3	88.1	87.8	95.2	> 10	> 10	> 10	> 10	> 10	0	0	0	0	1.2
